Results: PubChem BioAssay AID328 (DTP/NCI, 2004)
Several values for one entry are separate records, joined by “and”; a condition that tells them apart may be missing. Equal values may be shown once. Toxic doses and inconclusive results are not listed.

Tested on: BDF1 mice, P388 leukemia ip, median survival T/C
Experiment: NCI In Vivo Anticancer Drug Screen. Data for tumor model P388 Leukemia (intraperitoneal) in B6D2F1 (BDF1) mice
Settings: endpoint: median survival time, higher = longer survival
Procedure, shortened: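 In tumour-bearing mice, survival after compound treatment is set against the vehicle group and given as a quotient.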

[1] = dose: 50.0 mg/kg/injection, schedule: Q01DX009 (ip), vehicle: Klucel (hydroxypropylcellulose) (HPC)
[2] = dose: 25.0 mg/kg/injection, schedule: Q01DX009 (ip), vehicle: saline with Tween-80
[3] = dose: 50.0 mg/kg/injection, schedule: Q01DX009 (ip), vehicle: saline with Tween-80
[4] = dose: 100.0 mg/kg/injection, schedule: Q01DX009 (ip), vehicle: saline with Tween-80

O=C(c1ccc([N+](=O)[O-])cc1)C(Br)C(Br)c1ccncc1 (stereo not given)
T/C (dose: 50.0 mg/kg/injection, schedule: Q01DX001 (ip), vehicle: Klucel (hydroxypropylcellulose) (HPC)): 105 % of control
T/C (dose: 100.0 mg/kg/injection, schedule: Q01DX001 (ip), vehicle: Klucel (hydroxypropylcellulose) (HPC)): 110 % of control
T/C (dose: 100.0 mg/kg/injection, schedule: Q04DX003 (ip), vehicle: Klucel (hydroxypropylcellulose) (HPC)): 113 % of control
T/C (dose: 200.0 mg/kg/injection, schedule: Q01DX001 (ip), vehicle: Klucel (hydroxypropylcellulose) (HPC)): 115 % of control
T/C (dose: 200.0 mg/kg/injection, schedule: Q04DX003 (ip), vehicle: Klucel (hydroxypropylcellulose) (HPC)): 113 % of control
T/C (dose: 400.0 mg/kg/injection, schedule: Q04DX003 (ip), vehicle: Klucel (hydroxypropylcellulose) (HPC)): 113 % of control

CN(C)P(=O)(N(C)C)N(C)C (tested in a mixture with another compound)
T/C [1]: 98 % of control
T/C (dose: 100.0 mg/kg/injection, schedule: Q01DX009 (ip), vehicle: Klucel (hydroxypropylcellulose) (HPC)): 105 % of control
T/C (dose: 200.0 mg/kg/injection, schedule: Q01DX009 (ip), vehicle: Klucel (hydroxypropylcellulose) (HPC)): 105 % of control

CN(C)[C@@H]1C(=O)C(C(=O)NCN(CCCl)CCCl)=C(O)[C@@]2(O)C(=O)C3=C(O)c4c(O)cccc4[C@@](C)(O)[C@H]3C[C@@H]12
T/C (dose: 3.12 mg/kg/injection, schedule: Q01DX009 (ip), vehicle: saline with Tween-80): 104 % of control
T/C (dose: 6.25 mg/kg/injection, schedule: Q01DX009 (ip), vehicle: Klucel (hydroxypropylcellulose) (HPC)): 91 % of control
T/C (dose: 6.25 mg/kg/injection, schedule: Q01DX009 (ip), vehicle: saline with Tween-80): 100 % of control
T/C (dose: 9.0 mg/kg/injection, schedule: Q01DX009 (ip), vehicle: saline): 159 % of control
T/C (dose: 12.5 mg/kg/injection, schedule: Q01DX009 (ip), vehicle: Klucel (hydroxypropylcellulose) (HPC)): 108 % of control
T/C (dose: 12.5 mg/kg/injection, schedule: Q01DX009 (ip), vehicle: saline with Tween-80): 100 % of control
T/C (dose: 14.0 mg/kg/injection, schedule: Q01DX009 (ip), vehicle: saline): 172 % of control
T/C (dose: 20.0 mg/kg/injection, schedule: Q04DX003 (ip), vehicle: saline): 150 % of control
T/C (dose: 22.0 mg/kg/injection, schedule: Q01DX009 (ip), vehicle: saline): 161 % of control and 209 % of control
T/C [2]: 90 % of control and 109 % of control
T/C (dose: 33.0 mg/kg/injection, schedule: Q01DX009 (ip), vehicle: saline): 169 % of control
T/C (dose: 33.0 mg/kg/injection, schedule: Q04DX003 (ip), vehicle: saline with Tween-80): 163 % of control
T/C (dose: 44.0 mg/kg/injection, schedule: Q04DX003 (ip), vehicle: saline): 186 % of control
T/C [1]: 163 % of control
T/C [3]: 86 % of control and 109 % of control
T/C (dose: 50.0 mg/kg/injection, schedule: Q01DX009 (ip), vehicle: saline): 203 % of control and 208 % of control
T/C (dose: 50.0 mg/kg/injection, schedule: Q04DX003 (ip), vehicle: saline with Tween-80): 186 % of control
T/C (dose: 67.0 mg/kg/injection, schedule: Q04DX003 (ip), vehicle: saline): 196 % of control
T/C (dose: 75.0 mg/kg/injection, schedule: Q01DX009 (ip), vehicle: saline): 211 % of control
T/C (dose: 75.0 mg/kg/injection, schedule: Q04DX003 (ip), vehicle: saline with Tween-80): 218 % of control
T/C [4]: 109 % of control
T/C (dose: 100.0 mg/kg/injection, schedule: Q04DX003 (ip), vehicle: saline): 229 % of control and 220 % of control
T/C (dose: 200.0 mg/kg/injection, schedule: Q04DX003 (ip), vehicle: saline): 91 % of control

CC(C(=O)O)C(=O)O.[NH2-].[NH2-].[Pt+2]
T/C (dose: 6.25 mg/kg/injection, schedule: Q01DX009 (ip), vehicle: saline): 93 % of control
T/C (dose: 25.0 mg/kg/injection, schedule: Q01DX009 (ip), vehicle: saline): 214 % of control

CC1(C)OC1CC1=CC(=O)C=CC1=O (stereo not given)
T/C [2]: 108 % of control
T/C [3]: 103 % of control
T/C [4]: 100 % of control
T/C (dose: 200.0 mg/kg/injection, schedule: Q01DX009 (ip), vehicle: saline with Tween-80): 117 % of control

O=CC(S)CO (stereo not given)
T/C (dose: 12.5 mg/kg/injection, schedule: Q01DX010 (ip), vehicle: carboxymethylcellulose (CMC)): 122 % of control
T/C (dose: 25.0 mg/kg/injection, schedule: Q01DX010 (ip), vehicle: carboxymethylcellulose (CMC)): 122 % of control
T/C (dose: 50.0 mg/kg/injection, schedule: Q01DX010 (ip), vehicle: carboxymethylcellulose (CMC)): 166 % of control
T/C (dose: 100.0 mg/kg/injection, schedule: Q01DX010 (ip), vehicle: carboxymethylcellulose (CMC)): 166 % of control

CCCn1/c(=N\N=O)sc2ccccc21
T/C (dose: 50.0 mg/kg/injection, schedule: Q04DX003 (ip), vehicle: saline sonified): 100 % of control
T/C (dose: 100.0 mg/kg/injection, schedule: Q04DX003 (ip), vehicle: saline sonified): 100 % of control
T/C (dose: 200.0 mg/kg/injection, schedule: Q04DX003 (ip), vehicle: saline sonified): 95 % of control
